IC50 and Selectivity data for 28 molecules are collected here from US20220110919A1, “METHODS OF MODULATING LEUKOCYTES ACTIVATION AND THROMBOCYTE CLEARANCE WITH INHIBITORS OF SPECIFIC NEURAMINIDASE ISOENZYMES” (The Governors of the University of Alberta, priority 2018, published 2022).

In one experiment the target is T1, NEU1 (Homo sapiens, UniProt Q99519).
T1 construct: His; made in house; host or cells: HEK293 cells (cell lysate, unpurified)
Briefly: Inhibition assay, 4MU-NANA cleavage, NEU1. Type of experiment: biochemical. The protocol: (§1) 4MU-NANA was then added to the mixture, making the final concentration of 4MU-NANA as 50 μM and the total volume of the reaction mixture as 20 μL. […] Assays were performed with duplicates for each point and IC50 was obtained by plotting the data with Graphpad™ Prism 5.0.

In another experiment the target is T2, NEU3 (Homo sapiens, UniProt Q9UQ49).
T2 construct: MBP (N); made in house; host or cells: E. coli
T2 sequence (Q9UQ49 1-428): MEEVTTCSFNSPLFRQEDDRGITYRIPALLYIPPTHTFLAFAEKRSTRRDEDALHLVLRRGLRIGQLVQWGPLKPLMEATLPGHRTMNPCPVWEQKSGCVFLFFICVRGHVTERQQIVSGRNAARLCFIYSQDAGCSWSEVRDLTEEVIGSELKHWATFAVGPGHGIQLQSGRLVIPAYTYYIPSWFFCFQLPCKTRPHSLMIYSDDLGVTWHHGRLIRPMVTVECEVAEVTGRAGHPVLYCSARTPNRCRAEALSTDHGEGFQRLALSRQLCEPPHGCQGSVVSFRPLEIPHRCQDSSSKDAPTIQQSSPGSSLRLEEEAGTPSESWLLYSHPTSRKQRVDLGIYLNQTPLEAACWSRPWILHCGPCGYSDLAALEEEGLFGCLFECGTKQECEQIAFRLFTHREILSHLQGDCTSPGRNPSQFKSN
The experiment can be described thus: Inhibition assay, 4MU-NANA cleavage, NEU3. In kind it is biochemical. On the procedure:
as §1

A further experiment has as its target T3, NEU4 (Homo sapiens, UniProt Q8WWR8).
T3 construct: GST; made in house; host or cells: E. coli
T3 sequence (Q8WWR8 1-484): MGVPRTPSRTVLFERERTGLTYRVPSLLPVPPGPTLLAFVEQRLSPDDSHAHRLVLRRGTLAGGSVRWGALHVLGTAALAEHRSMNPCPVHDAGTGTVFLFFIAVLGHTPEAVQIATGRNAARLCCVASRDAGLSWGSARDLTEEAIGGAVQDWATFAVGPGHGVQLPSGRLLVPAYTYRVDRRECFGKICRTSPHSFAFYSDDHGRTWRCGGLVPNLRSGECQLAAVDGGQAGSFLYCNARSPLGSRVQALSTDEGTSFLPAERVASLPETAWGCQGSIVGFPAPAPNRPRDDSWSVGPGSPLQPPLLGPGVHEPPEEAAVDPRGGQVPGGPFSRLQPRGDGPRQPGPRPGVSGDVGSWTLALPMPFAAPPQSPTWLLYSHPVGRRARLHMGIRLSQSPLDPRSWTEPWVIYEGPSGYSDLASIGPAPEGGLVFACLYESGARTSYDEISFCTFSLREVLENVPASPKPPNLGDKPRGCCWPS
The experiment can be described thus: Inhibition assay, 4MU-NANA cleavage, NEU4. Type of experiment: biochemical. The protocol: as §1

A further experiment has as its system NEU1, NEU2, NEU3, NEU4. Briefly: Target isoenzyme and selectivity from IC50 data of Table I. Type of experiment: biochemical, human. To be noted: from IC50 values of Table I.
In the next experiment the target is T4, NEU2 (Homo sapiens, UniProt Q9Y3R4).
T4 construct: MBP (N); made in house; host or cells: E. coli
T4 sequence (Q9Y3R4 whole entry): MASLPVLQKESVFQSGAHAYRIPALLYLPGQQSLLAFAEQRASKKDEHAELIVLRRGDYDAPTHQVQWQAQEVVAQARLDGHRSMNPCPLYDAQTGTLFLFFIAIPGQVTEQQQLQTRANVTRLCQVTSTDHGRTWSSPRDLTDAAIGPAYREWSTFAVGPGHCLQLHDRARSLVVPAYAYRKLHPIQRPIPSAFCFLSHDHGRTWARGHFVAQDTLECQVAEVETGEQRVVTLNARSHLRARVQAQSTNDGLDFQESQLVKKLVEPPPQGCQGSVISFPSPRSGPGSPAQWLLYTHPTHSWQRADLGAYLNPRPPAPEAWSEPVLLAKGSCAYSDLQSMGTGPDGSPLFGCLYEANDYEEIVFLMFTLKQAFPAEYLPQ
Briefly: Inhibition assay, 4MU-NANA cleavage, NEU2. Type of experiment: biochemical. As to conditions: 4MU-NANA as the substrate; pH 5.5. The protocol:
as §1

Setting [1] is: 4MU-NANA as the substrate, pH 4.5, read-out: IC50 NEU1.
Setting [2] is: compounds of Table I, read-out: IC50 against neu3.
The mark [3] stands for this setting: compounds of Table I, read-out: IC50 against neu4.
The mark [4] stands for this setting: 4MU-NANA as the substrate, pH 4.5, read-out: IC50 NEU3.
Setting [5] is: 4MU-NANA as the substrate, pH 4.5, read-out: IC50 NEU4.

Read-outs that look alike come from different tables or passages of the source.

As usually defined, the IC50 is the concentration at which inhibition is half-maximal. For the molecule `CCCCC(C)C(=O)N[C@H]1[C@H]([C@H](O)[C@H](O)CO)OC(C(=O)O)=C[C@@H]1O` (mixture of isomers) [compound 72, 5-(2-Methyl)hexanamido(S/R)-2,6-anhydro-3,5-dideoxy-d-glycero-d-galacto-non-2-enonic acid], the 50% inhibitory concentration (IC50) at NEU1 (setting [1]) was 0.55 ± 0.07 µM.
Still for that read-out and setting: to `CCCCC(C)C(=O)N[C@H]1[C@H]([C@H](O)[C@H](O)CNC(C)=O)OC(C(=O)O)=C[C@@H]1O` (mixture of isomers) [compound 74, 5-(2-Methyl)hexanamido(S/R)-9-acetanamido-2,6-anhydro-3,5-dideoxy-d-glycero-d-galacto-non-2-enonic acid] belongs 0.42 ± 0.07 µM.
As for `CC(=O)N[C@@H]1C(N=[N+]=[N-])C=C(C(=O)O)OC1CNOCc1ccccc1` (stereo in doubt) [5c], the concentration for half-maximal inhibition (IC50) at NEU3 (setting [2]) was less than 1 µM.
For `COc1ccc(-c2cn(C[C@@H](O)[C@@H](O)[C@@H]3OC(C(=O)O)=C[C@H](O)[C@H]3NC(C)=O)nn2)cc1` [7e], the IC50 at NEU4 (setting [3]) was not above 3 µM.
For the molecule `CC(=O)N[C@H]1[C@H]([C@H](O)[C@H](O)Cn2cc(-c3ccc(F)cc3)nn2)OC(C(=O)O)=C[C@@H]1O` [7f], the Selectivity in the experiment with NEU1, NEU2, NEU3, NEU4 came to 10. Also, the concentration for half-maximal inhibition (IC50) on NEU4 (setting [3]) is not above 3 µM.
For the molecule `CC(=O)N[C@H]1[C@H]([C@H](O)[C@H](O)Cn2cc(-c3ccc(C(F)(F)F)cc3)nn2)OC(C(=O)O)=C[C@@H]1O` [7g], the 50% inhibitory concentration (IC50) at NEU4 (setting [3]) is not above 10 µM.
The same measure, in the same setting: to `CC(=O)N[C@@H]1C(O)C=C(C(=O)O)OC1C(O)C(O)Cn1cc(-c2ccc(C(=O)O)cc2)nn1` (stereo partly shown) [7h] belongs not above 3 µM.
On the same count and under the same terms, next, `CC(=O)N[C@@H]1C(O)C=C(C(=O)O)OC1C(O)C(O)Cn1cc(-c2ccc(-c3ccccc3)cc2)nn1` (stereo partly shown) [7i]: less than 1 µM.
Take `CCC(=O)N[C@H]1C=C(C(=O)O)O[C@@H]([C@H](O)[C@H](O)CO)[C@@H]1NC(C)=O` [25a, 5-Acetamido-2,6-anhydro-4-propionamido-3,4,5-trideoxy-D-glycero-D-galacto-non-2-enonic acid]: the 50% inhibitory concentration (IC50) on NEU1 (setting [1]), at NEU3 (setting [4]) and on NEU4 (setting [5]) was more than 500 µM each time.
As for `CCCCC(=O)N[C@H]1C=C(C(=O)O)O[C@@H]([C@H](O)[C@H](O)CO)[C@@H]1NC(C)=O` [25b, 5-Acetamido-2,6-anhydro-4-pentanamido-3,4,5-trideoxy-D-glycero-D-galacto-non-2-enonic acid], the concentration for half-maximal inhibition (IC50) at NEU1 (setting [1]), on NEU3 (setting [4]) and on NEU4 (setting [5]) was more than 500 µM throughout.
For the molecule `CC(=O)N[C@H]1[C@H]([C@H](O)[C@H](O)CO)OC(C(=O)O)=C[C@@H]1NC(=O)C1CC1` [25c, 5-Acetamido-2,6-anhydro-4-cyclopropanecarboxamido-3,4,5-trideoxy-D-glycero-D-galacto-non-2-enonic acid], the concentration for half-maximal inhibition (IC50) at NEU1 (setting [1]), on NEU3 (setting [4]) and on NEU4 (setting [5]) was more than 500 µM throughout.
For the molecule `CC(=O)N[C@H]1[C@H]([C@H](O)[C@H](O)CO)OC(C(=O)O)=C[C@@H]1NC(=O)C1CCC1` [25d, 5-Acetamido-2,6-anhydro-4-cyclobutanecarboxamido-3,4,5-trideoxy-D-glycero-D-galacto-non-2-enonic acid], the concentration for half-maximal inhibition (IC50) at NEU1 (setting [1]), on NEU3 (setting [4]) and on NEU4 (setting [5]) was more than 500 µM throughout.
For the molecule `CC(=O)N[C@H]1[C@H]([C@H](O)[C@H](O)Cn2cc(-c3ccc(C(=O)O)cc3)nn2)OC(C(=O)O)=C[C@@H]1N=[N+]=[N-]` [compound 13], the IC50 on NEU1 (setting [1]) and against NEU2 was more than 500 µM in each case. Moreover, in the experiment with NEU1, NEU2, NEU3, NEU4, the Selectivity was 20.
In the case of `CC(=O)NC1C(N)C=C(C(=O)O)OC1C(O)C(O)Cn1cc(-c2ccc(C(=O)O)cc2)nn1` (stereo not shown) [compound 15], the IC50 at NEU1 (setting [1]), on NEU3 (setting [4]), against NEU2 and at NEU4 (setting [5]) was more than 500 µM throughout.
In the case of `CC(=O)NC1C(NC(=O)NCCC(=O)O)C=C(C(=O)O)OC1C(O)C(O)Cn1cc(-c2ccc(C(=O)O)cc2)nn1` (stereo not shown) [compound 18], the IC50 on NEU1 (setting [1]) and at NEU3 (setting [4]) was more than 500 µM each time.
Consider `CC(=O)N[C@@H]1C(O)C=C(C(=O)O)OC1C(O)C(O)Cn1cc(CNC(=O)c2ccccc2)nn1` (stereo partly shown) [compound 26], for which the IC50 on NEU4 (setting [3]) is not above 3 µM.
On the same count and under the same terms, to `CC(=O)N[C@@H]1C(O)C=C(C(=O)O)OC1C(O)C(O)Cn1cc(-c2ccc(NC(=O)c3ccccc3)cc2)nn1` (stereo partly shown) [compound 27] belongs not above 10 µM.
Consider `CC(=O)N[C@H]1C(C(O)C(O)Cn2cc(CO)nn2)OC(C(=O)O)=C[C@H]1O` (stereo partly shown) [compound 28, C9-4HMT-DANA], for which the IC50 on NEU1 (setting [1]) is more than 500 µM; at NEU3 (setting [4]), 80 ± 10 µM; at NEU3 (setting [2]), not above 100 µM.
Consider `CCCC(=O)N[C@H]1[C@H]([C@H](O)[C@H](O)CO)OC(C(=O)O)=C[C@@H]1O` [compound 30, 5-Butyramido-2,6-anhydro-3,5-dideoxy-D-glycero-D-galacto-non-2-enonic acid], for which the half-maximal inhibitory concentration (IC50) was 8.4 ± 0.5 µM at NEU1 (setting [1]); not above 10 µM at NEU1 (compounds of Table I, read-out: IC50 against neu1); 15 ± 2 µM at NEU3 (setting [4]); 8.4 ± 0.4 µM on NEU4 (setting [5]); not above 10 µM at NEU4 (setting [3]).
On to `[N-]=[N+]=NCC(=O)N[C@@H]1C(O)C=C(C(=O)O)OC1C(O)C(O)CO` (stereo partly drawn) [compound 40, 5-(N-2-azidoacetyl)-2,3,5-trideoxy-D-glycero-D-galacto-2-nonulopyranosonic acid], for which the IC50 at NEU4 (setting [3]) is not above 10 µM.
Turning to `CC(=O)Nc1ccc(C(=O)NC[C@@H](O)[C@@H](O)[C@@H]2OC(C(=O)O)=C[C@H](O)[C@H]2NC(C)=O)cc1` [compound 58, 5-Acetamido-9-(4-acetamido)benzamido-2,6-anhydro-3,5-dideoxy-d-glycero-d-galacto-non-2-enonic acid], the 50% inhibitory concentration (IC50) on NEU3 (setting [2]) was not above 10 µM.
With `CC(=O)Nc1cccc(C(=O)NC[C@@H](O)[C@@H](O)[C@@H]2OC(C(=O)O)=C[C@H](O)[C@H]2NC(C)=O)c1` [compound 60, 5-Acetamido-9-(3-acetamido)benzamido-2,6-anhydro-3,5-dideoxy-d-glycero-d-galacto-non-2-enonic acid], at NEU3 (setting [2]), the half-inhibitory concentration (IC50) was not above 10 µM.
`CCCCCc1cn(C[C@@H](O)[C@@H](O)[C@@H]2OC(C(=O)O)=C[C@H](O)[C@H]2NC(C)=O)nn1` [compound 63, 5-Acetamido-9-(4-pentyl)triazolyl-2,6-anhydro-3,5-dideoxy-d-glycero-d-galacto-non-2-enonic acid]: the values for the IC50 on NEU3 (setting [2]) and on NEU4 (setting [3]) were not above 10 µM and not above 3 µM, respectively.
For the molecule `CCCCCC(=O)NC[C@@H](O)[C@@H](O)[C@@H]1OC(C(=O)O)=C[C@H](O)[C@H]1NC(=O)CCCCC` [compound 64, 5-Hexanamido-9-hexanamido-2,6-anhydro-3,5-dideoxy-d-glycero-d-galacto-non-2-enonic acid], the 50% inhibitory concentration (IC50) on NEU3 (setting [4]) and at NEU4 (setting [5]) was more than 500 µM throughout.
As for `CCCCC(=O)NC[C@@H](O)[C@@H](O)[C@@H]1OC(C(=O)O)=C[C@H](O)[C@H]1NC(=O)CC` [compound 65, 5-Propionamido-9-pentanamido-2,6-anhydro-3,5-dideoxy-D-glycero-D-galacto-non-2-enonic acid], the IC50 on NEU3 (setting [4]) was more than 500 µM.
The same measure, in the same setting: to `CCCCCC(=O)N[C@H]1[C@H]([C@H](O)[C@H](O)CNC(C)=O)OC(C(=O)O)=C[C@@H]1O` [compound 68, 5-Hexanamido-9-acetamido-2,6-anhydro-3,5-dideoxy-D-glycero-D-galacto-non-2-enonic acid] belongs more than 500 µM; to `CCCCCC(=O)N[C@H]1[C@H]([C@H](O)[C@H](O)CNC(=O)CC)OC(C(=O)O)=C[C@@H]1O` [compound 69, 5-Hexanamido-9-propionamido-2,6-anhydro-3,5-dideoxy-d-glycero-d-galacto-non-2-enonic acid], more than 500 µM.
`CCCCCC(=O)N[C@H]1[C@H]([C@H](O)[C@H](O)CNC(=O)CCC)OC(C(=O)O)=C[C@@H]1O` [compound 70, 5-Hexanamido-9-butanamido-2,6-anhydro-3,5-dideoxy-D-glycero-D-galacto-non-2-enonic acid]: the half-inhibitory concentration (IC50) on NEU3 (setting [4]) and on NEU4 (setting [5]) was more than 500 µM throughout.
